Test system: Hs578T complex spheroid growth, percent test/control
Assay: Anticancer human tumor Hs578T cell line growth inhibition [AhR];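 also: luminescent viability signal as a proxy for spheroid growth; spheroids exposed to agents for one week after three days of growth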
Conditions: for IC50: curve of first compound; for viability, T/C: stronger effect = lower value
Source text: Multicellular complex tumor spheroid response to aryl hydrocarbon receptor antagonists in combination with a variety of drugs and investigational agents in selected tumor cell lines
The current study was undertaken to assess response to aryl hydrocarbon receptor antagonists in combination with standard-of-care drugs and investigational agents in solid tumor complex spheroid models. Complex spheroids include a stromal component modeled by human endothelial cells (HUVEC) and fibroblasts modeled by human mesenchymal stem cells (MSCs). The concentration ranges selected for each drug and investigational agent were based upon clinically achievable concentrations if the clinical Cmax of the agent was known.
Compounds. The drugs and investigational agents: BAY 2416964 (NSC825713), GNF351 (NSC835774), CH-223191 (NSC835775), CPI-455 (NSC825282), aza-TdCyd (NSC777586), decitabine (NSC127716), belinostat (NSC758774), entinostat (NSC756642), pevonedistat (NSC761192), tazemetostat (NSC777109), talazoparib (NSC765396), olaparib (NSC753686), selinexor (NSC780203), nedisertib (M3814, NSC802822), bortezomib (NSC756655), venetoclax (NSC766270), doxorubicin (NSC123127), elimusertib (BAY189344, NSC800525), ceralasertib (AZD6738, NSC777638), TAK-243 (NSC785004), alisertib (NSC759677), etoposide (NSC141540), topotecan (NSC609699), eribulin (NSC707389), gemcitabine (NSC613327), carboplatin (NSC241240), cisplatin (NSC119875), and SN-38 (NSC673596) were obtained from the National Cancer Institute (NCI) Developmental Therapeutics Program Chemical Repository (32). The FDA-approved anticancer drug set is available from the Developmental Therapeutics Program at https://dtp.cancer.gov/organization/dscb/obtaining/available plates.htm. […] The stock solutions were prepared in dimethyl sulfoxide (DMSO, Sigma-Aldrich, St. Louis, MO, cat. D2650), except for the platinum compounds which were prepared in saline (Quality Biological, Gaithersburg, MD, cat. 114-055-101), at 800-fold the tested concentration and stored at -70 degrees C prior to their use. All drugs and investigational agents were tested over a range starting from a high concentration at or near the clinical Cmax and decreasing in half-log increments. If the clinical Cmax for an agent had not been determined, the highest concentration tested was 10 microM (Table 1).
Cell Culture. All cells were maintained in an incubator at 37 degrees C and 5% CO2 with 95% humidity. The PDC lines were cultured according to standard operating procedures established by the NCI PDMR (https://pdmr.cancer.gov). Briefly, all PDCs were thawed and cultured in Matrigel-coated flasks prepared with a working solution of 1X Ham's F-12 nutrient mix, without supplementation (Invitrogen, Waltham, MA, cat. 11765054), 100 U/mL penicillin-streptomycin (Invitrogen, cat. 15140122), and 2.5% Matrigel (Corning Inc., Corning, NY, cat. 354248) for the first three passages. All PDCs were cultured in complete DMEM/F-12 media containing advanced DMEM/F-12 (Invitrogen, cat. 12634028), 4.9% defined fetal bovine serum, heat inactivated (HyClone Laboratories Inc., Logan, UT, cat. SH30070.03HI), 389 ng/mL hydrocortisone (Sigma-Aldrich, cat. H4001), 9.7 ng/mL human EGF recombinant protein (Invitrogen, cat. PHG0313), 23.4 microg/mL adenine (Sigma-Aldrich, cat. A2786), 97.3 U/mL penicillin-streptomycin (Invitrogen, cat. 15140122), 1.9 mM L-glutamine (Invitrogen, cat. 25030081), and 9.7 microM Y-27632 dihydrochloride (Tocris Bioscience, Bristol, United Kingdom, cat. 1254). The PDCs were cultured in complete DMEM/F12 media without 10 microM Y-27632 dihydrochloride for at least two passages prior to the screen. The established cell lines NCI-H1341 and […] were cultured in DMEM/F-12, HEPES (Invitrogen, cat. 11330032), 5% defined fetal bovine serum (HyClone Laboratories Inc., cat. SH30070.03), ITS premix universal culture supplement [insulin (5 microg/mL), transferrin (5 microg/mL), and selenious acid (5 ng/mL)] […]

[1] = second compound 0.1 µM, first compound 0.0316 µM
[2] = second compound 0.1 µM, first compound 0.1 µM
[3] = second compound 0.1 µM, first compound 0.316 µM
[4] = second compound 0.1 µM, first compound 1 µM
[5] = second compound 0.1 µM, first compound 3.16 µM
[6] = second compound 0.1 µM, first compound 10 µM
[7] = second compound 0.316 µM, first compound 0.0316 µM
[8] = second compound 0.316 µM, first compound 0.1 µM
[9] = second compound 0.316 µM, first compound 0.316 µM
[10] = second compound 0.316 µM, first compound 1 µM
[11] = second compound 0.316 µM, first compound 3.16 µM
[12] = second compound 0.316 µM, first compound 10 µM
[13] = second compound 1 µM, first compound 0.0316 µM
[14] = second compound 1 µM, first compound 0.1 µM
[15] = second compound 1 µM, first compound 0.316 µM
[16] = second compound 1 µM, first compound 1 µM
[17] = second compound 1 µM, first compound 3.16 µM
[18] = second compound 1 µM, first compound 10 µM
[19] = second compound 3.16 µM, first compound 0.0316 µM
[20] = second compound 3.16 µM, first compound 0.1 µM
[21] = second compound 3.16 µM, first compound 0.316 µM
[22] = second compound 3.16 µM, first compound 1 µM
[23] = second compound 3.16 µM, first compound 3.16 µM
[24] = second compound 3.16 µM, first compound 10 µM
[25] = second compound 10 µM, first compound 0.0316 µM
[26] = second compound 10 µM, first compound 0.1 µM
[27] = second compound 10 µM, first compound 0.316 µM
[28] = second compound 10 µM, first compound 1 µM
[29] = second compound 10 µM, first compound 3.16 µM
[30] = second compound 10 µM, first compound 10 µM

`CCc1c2c(nc3ccc(O)cc13)-c1cc3c(c(=O)n1C2)COC(=O)[C@]3(O)CC` + CC(CO)NC(=O)c1cc(-c2ccc(Cl)cc2)nn(-c2cnn(C)c2)c1=O was tested, and the IC50 (second compound 0.1 µM) was 207 nM, the IC50 (second compound 0.316 µM) was 158 nM and the IC50 (second compound 1 µM) was 182 nM. It also gave an IC50 (second compound 3.16 µM) of 193 nM, an IC50 (second compound 10 µM) of 194 nM and a viability, T/C (second compound 0.1 µM, first compound 0.000949 µM) of 87.1%. For the same molecule, the viability, T/C (second compound 0.1 µM, first compound 0.003 µM) was 86.2%, the viability, T/C (second compound 0.1 µM, first compound 0.00949 µM) was 78.3% and the viability, T/C (second compound 0.1 µM, first compound 0.03 µM) was 76.7%. It also gave a viability, T/C (second compound 0.1 µM, first compound 0.0949 µM) of 65%, a viability, T/C (second compound 0.1 µM, first compound 0.3 µM) of 42.7% and a viability, T/C (second compound 0.316 µM, first compound 0.000949 µM) of 79.3%. The viability, T/C (second compound 0.316 µM, first compound 0.003 µM) was 88%, the viability, T/C (second compound 0.316 µM, first compound 0.00949 µM) was 82.3% and the viability, T/C (second compound 0.316 µM, first compound 0.03 µM) was 66.3%. The viability, T/C (second compound 0.316 µM, first compound 0.0949 µM) was 58.2%, the viability, T/C (second compound 0.316 µM, first compound 0.3 µM) was 42% and the viability, T/C (second compound 1 µM, first compound 0.000949 µM) was 81.6%. It also gave a viability, T/C (second compound 1 µM, first compound 0.003 µM) of 85%, a viability, T/C (second compound 1 µM, first compound 0.00949 µM) of 86.2% and a viability, T/C (second compound 1 µM, first compound 0.03 µM) of 72.5%. The viability, T/C (second compound 1 µM, first compound 0.0949 µM) was 59.1%, the viability, T/C (second compound 1 µM, first compound 0.3 µM) was 43.5% and the viability, T/C (second compound 3.16 µM, first compound 0.000949 µM) was 89.3%. It also gave a viability, T/C (second compound 3.16 µM, first compound 0.003 µM) of 94.5%, a viability, T/C (second compound 3.16 µM, first compound 0.00949 µM) of 89.9% and a viability, T/C (second compound 3.16 µM, first compound 0.03 µM) of 74.9%. The viability, T/C (second compound 3.16 µM, first compound 0.0949 µM) was 57.5%, the viability, T/C (second compound 3.16 µM, first compound 0.3 µM) was 45.5% and the viability, T/C (second compound 10 µM, first compound 0.000949 µM) was 82.5%. The viability, T/C (second compound 10 µM, first compound 0.003 µM) was 82.7%, the viability, T/C (second compound 10 µM, first compound 0.00949 µM) was 78.1% and the viability, T/C (second compound 10 µM, first compound 0.03 µM) was 73.3%. The viability, T/C (second compound 10 µM, first compound 0.0949 µM) was 64.8% and the viability, T/C (second compound 10 µM, first compound 0.3 µM) was 41.2%.

`Nc1ccn(C2OC(CO)C(O)C2(F)F)c(=O)n1` (stereo not given) + CC(CO)NC(=O)c1cc(-c2ccc(Cl)cc2)nn(-c2cnn(C)c2)c1=O gave an IC50 (second compound 0.1 µM) of over 10000 nM, an IC50 (second compound 0.316 µM) of 9590 nM and an IC50 (second compound 1 µM) of over 10000 nM. The IC50 (second compound 3.16 µM) was over 10000 nM, the IC50 (second compound 10 µM) was 770 nM and the viability, T/C [1] was 54.6%. For the same molecule, the viability, T/C [2] was 58.7%, the viability, T/C [3] was 62.1% and the viability, T/C [4] was 54%. It also gave a viability, T/C [5] of 51.9%, a viability, T/C [6] of 52.4% and a viability, T/C [7] of 60.3%. It also gave a viability, T/C [8] of 63.5%, a viability, T/C [9] of 52.5% and a viability, T/C [10] of 52.3%. For the same molecule, the viability, T/C [11] was 57.3%, the viability, T/C [12] was 47.9% and the viability, T/C [13] was 61.1%. It also gave a viability, T/C [14] of 70.3%, a viability, T/C [15] of 55.3% and a viability, T/C [16] of 50.5%. It also gave a viability, T/C [17] of 57.9%, a viability, T/C [18] of 50.4% and a viability, T/C [19] of 59.4%. It also gave a viability, T/C [20] of 61.8%, a viability, T/C [21] of 59.5% and a viability, T/C [22] of 54.5%. It also gave a viability, T/C [23] of 53.6%, a viability, T/C [24] of 58.5% and a viability, T/C [25] of 55.1%. The viability, T/C [26] was 60.6%, the viability, T/C [27] was 47.7% and the viability, T/C [28] was 44.6%. The viability, T/C [29] was 51.5% and the viability, T/C [30] was 49.1%.

In the case of `O=C(c1cc(Cc2n[nH]c(=O)c3ccccc23)ccc1F)N1CCN(C(=O)C2CC2)CC1` + CC(CO)NC(=O)c1cc(-c2ccc(Cl)cc2)nn(-c2cnn(C)c2)c1=O, the IC50 (second compound 0.1 µM) is reported as over 10000 nM, the IC50 (second compound 0.316 µM) is reported as over 10000 nM and the IC50 (second compound 1 µM) is reported as over 10000 nM. It also gave an IC50 (second compound 3.16 µM) of over 10000 nM, an IC50 (second compound 10 µM) of over 10000 nM and a viability, T/C [1] of 113%. For the same molecule, the viability, T/C [2] was 112%, the viability, T/C [3] was 109% and the viability, T/C [4] was 104%. The viability, T/C [5] was 96.3%, the viability, T/C [6] was 93.5% and the viability, T/C [7] was 110%. It also gave a viability, T/C [8] of 115%, a viability, T/C [9] of 114% and a viability, T/C [10] of 104%. For the same molecule, the viability, T/C [11] was 98.9%, the viability, T/C [12] was 89.7% and the viability, T/C [13] was 106%. It also gave a viability, T/C [14] of 113%, a viability, T/C [15] of 121% and a viability, T/C [16] of 108%. For the same molecule, the viability, T/C [17] was 110%, the viability, T/C [18] was 94.7% and the viability, T/C [19] was 122%. It also gave a viability, T/C [20] of 124%, a viability, T/C [21] of 126% and a viability, T/C [22] of 105%. The viability, T/C [23] was 106%, the viability, T/C [24] was 88.5% and the viability, T/C [25] was 96.2%. The viability, T/C [26] was 107%, the viability, T/C [27] was 112% and the viability, T/C [28] was 101%. The viability, T/C [29] was 99.9% and the viability, T/C [30] was 86.9%.
